# Laboratory results from patent publication US20070134349A1, “Methods of treating hematological malignancies” (DUKE UNIVERSITY, priority 2005, published 2007).
# Assays:
# NB4 cells [1] = test: Differentiation markers CD11c/CD11b by flow cytometry in NB4 cells; assay type: cell-based; details: for NB4 differentiation: FIG. 10; for NB4 cell differentiation (CD11c): 21 h
# Procedure: (§1) NB4 cells were provided by Dr. Ronald Evans (Salk Institute, La Jolla, Calif.). NB4-R4 cells were provided by Dr. Wilson Miller (McGill University, Montreal, Canada). HL-60, U-937, and Kasumi-1 cells were obtained from the American Type Culture Collection (Rockville, Md.). NB4 and NB4-R4 cells were grown in RPMI medium 1640 containing 10% fetal bovine serum. U-937 cells were grown in RPMI medium 1640 containing 10 mM HEPES, 1 mM sodium pyruvate, 4.5 g/L glucose, and 10% fetal bovine serum. HL-60 cells were grown in Iscove's Modified Dulbecco's medium containing 20% fetal bovine serum. Kasumi-1 cells were grown in RPMI medium 1640 containing 10 mM HEPES, 1 mM sodium pyruvate, 4.5 g/L glucose, and 20% fetal bovine serum.
# (§2) To determine the percentage of cells that express differentiation markers, cells were washed once and resuspended in RPMI medium 1640 containing 3% fetal bovine serum. Phycoerythrin (PE)-conjugated CD11b, 5 Allophycocyanin (APC)-CD11c or control antibodies (BD Pharmingen, San Diego, Calif.) were added into cell suspension. After 30 minutes of incubation in the dark at 4° C., the cells were washed twice and resuspended in RPMI medium 1640 containing 7-amino actinomycin D (AAD) (for dead cell exclusion) and analyzed by FACScan (Becton Dickinson).
# PML-RARα = molecular target: T1, PML-RARα (Homo sapiens, UniProt P10276+P29590); test: Western blot of PML-RARα and RARα in NB4 cells; assay type: cell-based; details: 3 days
# T1 construct: PML portion (fusion partner, UniProt P29590); endogenous in cells; host or cells: NB4 cells
# T1 sequence (P29590+P10276 with tags, fused parts or gaps): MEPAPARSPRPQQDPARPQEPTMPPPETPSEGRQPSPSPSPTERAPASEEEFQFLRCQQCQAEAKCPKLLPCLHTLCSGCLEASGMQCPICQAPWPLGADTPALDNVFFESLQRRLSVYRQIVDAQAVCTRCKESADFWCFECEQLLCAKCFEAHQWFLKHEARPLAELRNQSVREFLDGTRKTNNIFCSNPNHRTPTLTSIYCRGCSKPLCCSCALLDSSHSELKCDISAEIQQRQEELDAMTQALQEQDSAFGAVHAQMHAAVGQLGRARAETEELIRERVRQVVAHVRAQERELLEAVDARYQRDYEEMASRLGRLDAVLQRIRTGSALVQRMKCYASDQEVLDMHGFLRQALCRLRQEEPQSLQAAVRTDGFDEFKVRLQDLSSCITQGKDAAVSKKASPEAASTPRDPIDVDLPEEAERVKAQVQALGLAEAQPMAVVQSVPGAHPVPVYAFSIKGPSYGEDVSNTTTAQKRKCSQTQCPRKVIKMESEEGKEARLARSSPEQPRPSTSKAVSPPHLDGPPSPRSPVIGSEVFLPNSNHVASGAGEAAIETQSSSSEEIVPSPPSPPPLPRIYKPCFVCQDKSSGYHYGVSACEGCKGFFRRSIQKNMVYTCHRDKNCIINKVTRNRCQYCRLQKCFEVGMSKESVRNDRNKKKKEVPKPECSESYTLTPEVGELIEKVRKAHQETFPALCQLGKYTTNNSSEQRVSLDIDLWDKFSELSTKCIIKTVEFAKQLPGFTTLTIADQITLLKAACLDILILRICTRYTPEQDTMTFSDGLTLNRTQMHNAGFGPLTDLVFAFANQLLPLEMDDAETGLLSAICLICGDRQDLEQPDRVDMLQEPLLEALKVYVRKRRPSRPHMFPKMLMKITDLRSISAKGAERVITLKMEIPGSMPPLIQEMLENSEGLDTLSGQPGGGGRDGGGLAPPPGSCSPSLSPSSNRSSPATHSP
# Procedure: (§3) Whole-cell lysates were prepared by washing the cells with PBS and resuspending them in 1 ml of lysis buffer (1× phosphate-buffered saline, 1 mM EDTA, 1.5 mg/ml of iodoacetamide, 100 μM sodium orthovanadate, 0.5% Triton X-100, 20 mM β-glycerolphosphate, 0.2 mM phenylmethylsulfonyl fluoride, and 1× complete protease inhibitor cocktail). After clarification by a 15-min centrifugation in a microcentrifuge at 4° C., the resulting supernatant was collected. 20-50 μg of protein extracts were separated on a 10% SDS-polyacrylamide gel and transferred to a nitrocellulose membrane. The membrane was blocked with 5% nonfat milk followed by incubation with antibodies. The immunocomplex was visualized by chemiluminescence.
# NB4-R4 cells = test: CD11c/CD11b expression by flow cytometry in ATRA-resistant NB4-R4 cells; assay type: cell-based; details: ATRA treatment, 3 days
# Procedure: as §1, §2
# RARE-TK-Luc reporter = RARE-TK-Luc reporter transient transfection in NB4 cells; assay type: cell-based; details: ATRA 1 μM, 19 h
# Procedure: Electroporation was performed using a Gene Pulser (BioRad, Hercules, Calif.) apparatus at 300 V and 960 μF capacity. […] Cells were harvested 19 h after transfection/treatment for luciferase and β-galactosidase activities.
# NB4 cells [2] = test: Apoptosis by Annexin V binding (flow cytometry) in NB4 cells; assay type: cell-based
# Procedure: as §1
# (§4) To determine the percentage of cells that undergo apoptosis, after incubation with APC-CD11c antibody in the dark at 4° C., cells were washed twice with PBS and incubated at room temperature for 15 min with PE-conjugated Annexin-V (BD Pharmingen) and 7-AAD in binding buffer (10 mM HEPES, pH 7.4, 140 mM NaCI, 2.5 mM CaCl2) and analyzed by FACScan for CD11c expression and Annexin V binding. Apoptotic cells are those that stained positive for Annexin V and negative for 7-AAD.
# H3 [3] = test: Western blot of phospho-H3 (Ser-10) in NB4 cells; assay type: cell-based; details: for H3 phosphorylation (Ser-10): NB4 cells, 24 h
# Procedure: as §3
# C/EBPβ = test: Western blot of phospho-C/EBPβ (Thr-235) and C/EBPβ in NB4 cells; assay type: cell-based
# Procedure: as §3
# [4] = plasma, humans; cited from earlier work
# [5] = in humans; cited from earlier work
# histones H3 and H4 = test: Western blot of acetylated histones H3 and H4 in NB4 cells; assay type: cell-based; details: concentrations required for apoptosis, NB4 cells, 24 h
# Procedure: as §3
# HL-60 cells = test: CD11c expression by flow cytometry in HL-60 cells; assay type: cell-based; details: 48 h
# Procedure: as §1, §2
# ERK1/2 [6] = test: Western blot of phospho-ERK1/2 in NB4 cells; assay type: cell-based; details: 24 h
# Procedure: as §3
# U-937 cells [7] = test: Annexin V binding in U-937 cells; assay type: cell-based; details: higher concentrations, 3 days
# Procedure: as §1, §4
# Kasumi-1 cells = test: CD11c expression by flow cytometry in Kasumi-1 cells; assay type: cell-based; details: 3 days
# Procedure: as §1, §2
# ERK1/2 [8] = test: Western blot of phospho-ERK1/2 in U-937 cells; assay type: cell-based; details: higher concentrations, 18 h, total ERK1/2 unaffected
# Procedure: as §3
# H3 [9] = test: Western blot of acetyl-H3 and phospho-H3 in U-937 cells; assay type: cell-based; details: higher concentrations, 18 h
# Procedure: as §3
# U-937 cells [10] = test: CD11c expression by flow cytometry in U-937 cells; assay type: cell-based; details: lower concentrations, 3 days
# Procedure: as §1, §2
# [11] = p38 inhibitor treatment of NB4 cells (data not shown)
molecule,measurement,setting,value
CCOCC(=O)O [ethoxyacetic acid],NB4 differentiation,NB4 cells [1]; NB4 cells,potent inducers
"CC1=C(/C=C/C(C)=C/C=C/C(C)=C/C(=O)O)C(C)(C)CCC1 [ATRA, all-trans-Retinoic acid]",expression level of PML-RARα fusion protein,PML-RARα,induced the degradation
same,"sensitivity of NB4-R4 cells versus NB4 parental line (CD11c, CD11b)",NB4-R4 cells,less sensitive
same,effect on percentage of cells expressing CD11c compared with 1 nM MAA,"NB4 cells [1]; 0.1 nM ATRA, NB4 cells, 24 h",same order of magnitude
same,percentage of cells expressing CD11b,"NB4 cells [1]; ATRA 10 nM alone, NB4 cells, 24 h, from 26%",51%
same,NB4 cell differentiation (CD11c),NB4 cells [1]; ATRA 1 μM,can induce NB4 cell differentiation
same,transcription of RARE-containing reporter gene (RARE-TK-Luc),RARE-TK-Luc reporter,can activate transcription
"O=C(CCCCCCC(=O)Nc1ccccc1)NO [SAHA, suberoylanilide hydroxamic acid]",apoptosis,"NB4 cells [2]; SAHA at higher concentrations, NB4 cells (data not shown)",effectively induced apoptosis
same,differentiation,"NB4 cells [1]; SAHA at lower concentrations, NB4 cells (data not shown)",facilitated differentiation
COCCC(=O)O [3-methoxypropionic acid],NB4 differentiation,NB4 cells [1]; NB4 cells,potent inducers
C[S+]([O-])c1ccc(-c2nc(-c3ccncc3)c(-c3ccc(F)cc3)[nH]2)cc1 (centres unmarked) [SB203580],effect on apoptosis,NB4 cells [2]; [11],little effect
same,effect on H3 phosphorylation at Ser-10,H3 [3]; [11],little effect
[Na+].[Na+].[Na+].[O]=[V]([O-])([O-])[O-] [sodium orthovanadate],apoptosis of NB4 cells in response to HDACI treatment,NB4 cells [2]; tyrosine phosphatase inhibitor treatment (data not shown),did not inhibit
N#CC(=C(/N)Sc1ccccc1N)/C(C#N)=C(\N)Sc1ccccc1N [U0126],number of BA-treated cells undergoing apoptosis,NB4 cells [2],significantly increased
same,MAA- or BA-induced phosphorylation of C/EBPβ at Thr-235,"C/EBPβ; U0126 5 μM, 17 h, absolute protein level unchanged",blocks
same,ATRA-induced differentiation,"NB4 cells [1]; U0126 pretreatment 2 h, then ATRA 1 μM 21 h, NB4 cells",less dramatic effect
same,MAA and BA-dependent differentiation as assessed by CD11c expression,"NB4 cells [1]; U0126 pretreatment 2 h, then MAA 5 mM or BA 1 mM 21 h, NB4 cells",dramatically reduced
Phenylbutyrate,half-life in vivo t1/2,[4],60 min
same,tolerability,[5],well-tolerated
"CCCC(=O)O [BA, butyric acid]",apoptosis (Annexin V),"NB4 cells [2]; BA 1 mM, NB4 cells, 21 h",effectively induces apoptosis
same,level of phosphorylated C/EBPβ at Thr-235,C/EBPβ; 17 h,increases phosphorylation
same,phosphorylation of C/EBPβ at Thr-235,"C/EBPβ; lower concentrations, 24 h",maximal phosphorylation
same,H3 and H4 acetylation,histones H3 and H4,robust acetylation
same,half-life in vivo t1/2,[4],6 min
same,tolerability,[5],well-tolerated
same,differentiation (CD11c),"NB4 cells [1]; BA 0.5 mM and 1 mM, NB4 cells, 24 h",differentiation was observed
same,NB4 cell differentiation (CD11c),NB4 cells [1]; BA 1 mM,can induce NB4 cell differentiation
same,differentiation (CD11c),"NB4 cells [1]; BA 5 mM (or higher), NB4 cells, 24 h",failed to differentiate
same,NB4 differentiation,NB4 cells [1]; NB4 cells,potent inducers
same,H3 phosphorylation (Ser-10),H3 [3]; higher concentrations,dramatically increased
same,H3 phosphorylation (Ser-10),H3 [3]; lower concentrations,without effect
same,differentiation as evidenced by expression of CD11c,HL-60 cells,induce differentiation
same,levels of phosphorylated ERK,"ERK1/2 [6]; higher concentrations (no differentiating effects), total ERK not decreased",dramatically decreased
same,constitutive levels of phosphorylated ERK,ERK1/2 [6]; lower concentrations,did not change
same,apoptosis (Annexin V),U-937 cells [7],inducing apoptosis
same,percentage of cells expressing CD11c,Kasumi-1 cells,increased
same,activity of ERK1/2 (phospho-ERK1/2),ERK1/2 [8],downregulate
same,H3 acetylation and phosphorylation,H3 [9],increase
same,expression of the differentiation marker CD11c,U-937 cells [10],increasing expression
"CCCC(CCC)C(=O)O [VPA, valproic acid]",apoptosis,"NB4 cells [2]; as concentrations increase, NB4 cells, FIG. 9",potently induces apoptosis
same,percentage of NB4 cells expressing CD11c,"NB4 cells [1]; NB4 cells, FIG. 9",did not significantly increase
arsenic trioxide [ATO],expression level of PML-RARα fusion protein,PML-RARα,induced the degradation
same,apoptosis (Annexin V),"NB4 cells [2]; ATO 0.1 μM, 0.5 μM alone, NB4 cells, 3 days",does not induce significant amount of apoptosis
CCC(=O)O [propionic acid],NB4 differentiation,NB4 cells [1]; NB4 cells,potent inducers
